# Assay results: ChEMBL document CHEMBL5576106, “Highly Functionalized Spirobisnaphthalenes from Roussoella sp. KT4147” (J Nat Prod, 2024)
# Tested on: COLO 201
# Test: Cytotoxicity against human COLO201 cells assessed as inhibition of cell growth incubated for 24 hrs by WST-1 assay
# Format: functional, cell-based
# Conditions: COLO 201, 24 h
row,SMILES,IC50 [µM]
1,O=C1C=CC(=O)C2=C1[C@@H](O)[C@H]1O[C@H]1C21Oc2cccc3cccc(c23)O1,9.4
2,O=C1C[C@@H](N[C@@H]2CC(=O)c3cccc4c3[C@@]23Oc2ccc(O)c5c2[C@](O4)(O3)[C@@H]2O[C@@H]2C5=O)[C@]23Oc4ccc(O)c5c4[C@](Oc4cccc1c42)(O3)[C@@H]1O[C@@H]1C5=O,5.7
3,COc1cc(=O)oc2c1[C@H](CO)[C@@H]1[C@H](C2)C(=O)c2cccc3c2[C@@]12Oc1ccc(O)c4c1[C@](O3)(O2)[C@@H]1O[C@@H]1C4=O,5.4
4,CC[C@@]1(O)C(=O)OCc2c1cc1n(c2=O)Cc2cc3ccccc3nc2-1 [CAMPTOTHECIN],27
5,Oc1ccc(O)c2c1[C@@H](O)C[C@@H](O)C21Oc2cccc3cccc(c23)O1,9.8
